Measured values reported in PubChem BioAssay (NCI).
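In this assay, cells in 96-well plates receive the compound at five concentrations for 48 hours. Endpoints are linearly interpolated between the surrounding concentrations. GI50 marks 50% less growth. TGI denotes the concentration required for complete inhibition of growth.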

Assays:
Assay in all cases: NCI anticancer screen, dose series, 48 h
[1] = system: HOP-92 NSCLC
[2] = system: NCI-H23 lung
[3] = system: OVCAR-8 ovarian
[4] = system: SF-295 CNS
[5] = system: SK-MEL-5 melanoma
[6] = system: SNB-19 CNS
[7] = system: NCI/ADR-RES ovarian
[8] = system: RXF 393 renal
[9] = system: SR leukemia

`Nc1c(-c2ccc(Cl)cc2)[n+]([O-])c2ccccc2[n+]1[O-]` was tested, and the TGI [1] was > 100 µM, the TGI [2] was > 100 µM and the TGI [3] was > 100 µM. For the same compound, the TGI [4] was > 100 µM, the TGI [5] was > 100 µM and the TGI [6] was > 100 µM.
`N#CSC1CCCCNC1=O` (centres undefined) gave a TGI [1] of 20.9 µM, a TGI [2] of 24.4 µM and a TGI [7] of 29.1 µM. The TGI [3] was 33.6 µM, the TGI [8] was 34 µM and the TGI [4] was 30.7 µM. For the same compound, the TGI [6] was 30.2 µM and the TGI [9] was 38.9 µM.
For `CC(SC(=S)N1CCOCC1)c1cc2oc(=O)n(C)c2cc1Cl` (centres undefined), the TGI [1] was > 10 µM, the TGI [2] was > 100 µM and the TGI [3] was > 100 µM. The TGI [8] was > 100 µM, the TGI [4] was > 100 µM and the TGI [5] was > 100 µM. For the same compound, the TGI [6] was > 100 µM and the TGI [9] was > 100 µM.
In the case of `O=C(CCc1cc(-c2ccccc2)nc(=S)[nH]1)N(Cc1ccccc1)Cc1ccccc1`, the TGI [1] is reported as > 100 µM, the TGI [2] is reported as > 100 µM and the TGI [3] is reported as > 100 µM. For the same compound, the TGI [4] was > 100 µM and the TGI [6] was > 100 µM.
`COc1ccc2c(c1)[n+](=O)c(C(=O)C/C(=N/OCCCc1ccccc1)C(=O)NC13CC4CC(CC(C4)C1)C3)c(C)n2[O-]` was tested, and the TGI [2] was > 100 µM, the TGI [3] was > 100 µM and the TGI [4] was > 100 µM. The TGI [5] was > 100 µM, the TGI [6] was > 100 µM and the TGI [9] was > 100 µM.
Work on `COc1cc2cc(Oc3ccc(NC(=O)Nc4ccc(Cl)c(C(F)(F)F)c4)cc3)c(C)nc2cc1OCCN1CCOCC1` yielded a GI50 [1] of 1.66 µM, a TGI [1] of 6.16 µM and a GI50 [2] of 1.12 µM. It also gave a TGI [2] of 3.89 µM, a GI50 [7] of 2.34 µM and a TGI [7] of 12.6 µM. For the same compound, the GI50 [3] was 2.67 µM, the TGI [3] was > 100 µM and the GI50 [8] was 1.77 µM. It also gave a TGI [8] of 3.99 µM, a GI50 [4] of 1.19 µM and a TGI [4] of 2.85 µM. It also gave a GI50 [5] of 1.14 µM, a TGI [5] of 2.37 µM and a GI50 [6] of 3.23 µM. For the same compound, the TGI [6] was 19.8 µM.
For `Nc1cccc(S(=O)(=O)NCC(=O)O)c1`, the TGI [2] was > 100 µM, the TGI [3] was > 100 µM and the TGI [8] was > 100 µM. For the same compound, the TGI [4] was > 100 µM, the TGI [5] was > 100 µM and the TGI [6] was > 100 µM.
`CCCCCCCC[C@@H](O)CC(=O)N[C@@H](CC(N)=O)C(=O)N[C@@H](CCC(N)=O)C(=O)N[C@@H](CC(=O)c1cc(C)cc(O)c1C(=O)c1c(O)cccc1O)CC(C)C` showed a GI50 [1] of 0.201 µM, a TGI [1] of 0.939 µM and a GI50 [2] of 1.36 µM. For the same compound, the TGI [2] was 14.8 µM, the GI50 [7] was 39.6 µM and the TGI [7] was > 100 µM. The GI50 [3] was 3.23 µM, the TGI [3] was 46.6 µM and the GI50 [8] was 0.214 µM. The TGI [8] was 0.713 µM, the GI50 [4] was 1.97 µM and the TGI [4] was 7.53 µM. The GI50 [6] was 0.244 µM, the TGI [6] was > 100 µM and the GI50 [9] was 0.112 µM. The TGI [9] was > 100 µM.
With `CCc1ccccc1NC(=O)C1=C(C)NC(C)=C(C(=O)Nc2ccccc2CC)C1c1ccc2c(c1)OCO2` the TGI [1] was 60.1 µM, the TGI [2] was > 100 µM and the TGI [3] was > 100 µM. For the same compound, the TGI [8] was 94.1 µM, the TGI [4] was > 100 µM and the TGI [5] was > 100 µM. The TGI [6] was > 100 µM.
Work on `NC1=NC(c2ccccc2)CC(c2cc(Cl)ccc2O)=N1` (centres undefined) yielded a TGI [1] of 33.5 µM, a TGI [2] of 29.4 µM and a TGI [3] of 29.8 µM. It also gave a TGI [8] of 32.9 µM, a TGI [4] of 31 µM and a TGI [6] of 30.7 µM. For the same compound, the TGI [9] was 36.6 µM.
In the case of `O=C(CC1(O)C(=O)Nc2c(Cl)ccc(Cl)c21)c1ccc(F)cc1` (centres undefined), the TGI [1] is reported as 82.8 µM, the TGI [2] is reported as 60.6 µM and the TGI [3] is reported as > 100 µM. The TGI [8] was 92.2 µM, the TGI [4] was > 100 µM and the TGI [5] was 38.6 µM. For the same compound, the TGI [6] was > 100 µM.
For `O=C(O)CCSC(=O)Nc1ccc([N+](=O)[O-])cc1`, the TGI [2] was > 100 µM, the TGI [3] was > 100 µM and the TGI [8] was > 100 µM. The TGI [4] was > 100 µM, the TGI [6] was > 100 µM and the TGI [9] was > 100 µM.
`CCCCCCCCn1ccc2cc(NC(=O)Cn3cc(CN4CCCC4)nn3)ccc21` gave a GI50 [2] of 1.92 µM, a TGI [2] of 3.8 µM and a GI50 [7] of 2.08 µM. For the same compound, the TGI [7] was 4.49 µM, the GI50 [3] was 2 µM and the TGI [3] was 4.09 µM. For the same compound, the GI50 [8] was 1.6 µM, the TGI [8] was 3.37 µM and the GI50 [4] was 1.87 µM. For the same compound, the TGI [4] was 3.72 µM, the GI50 [5] was 1.79 µM and the TGI [5] was 3.18 µM. The GI50 [6] was 1.73 µM, the TGI [6] was 3.34 µM and the GI50 [9] was 2.3 µM. It also gave a TGI [9] of 6.34 µM.
`Cc1ccc(C(=O)NC(C)C)cc1-c1ccc(C(=O)NCC2CC2)cc1` was tested, and the GI50 [2] was > 25 µM, the TGI [2] was > 25 µM and the GI50 [7] was > 25 µM. For the same compound, the TGI [7] was > 25 µM, the GI50 [3] was > 25 µM and the TGI [3] was > 25 µM. For the same compound, the GI50 [8] was > 25 µM, the TGI [8] was > 25 µM and the GI50 [4] was > 25 µM. For the same compound, the TGI [4] was > 25 µM, the GI50 [5] was > 25 µM and the TGI [5] was > 25 µM. For the same compound, the GI50 [6] was > 25 µM and the TGI [6] was > 25 µM.
For `COc1ccc2nc3c(C(=O)NCCN(C)C)cccc3nc2c1`, the TGI [1] was 24 µM, the TGI [2] was 24.7 µM and the TGI [3] was > 100 µM. The TGI [8] was > 1 µM, the TGI [4] was 39.1 µM and the TGI [5] was 15.7 µM. The TGI [6] was 37.9 µM.
`COc1cc(C(=O)CBr)c(OC)cc1C` was tested, and the TGI [2] was > 100 µM, the TGI [7] was > 100 µM and the TGI [3] was > 100 µM. The TGI [8] was > 100 µM, the TGI [4] was > 100 µM and the TGI [5] was > 100 µM. For the same compound, the TGI [6] was > 100 µM and the TGI [9] was > 100 µM.
In the case of `O=C(N/C(=C\c1cccc([N+](=O)[O-])c1)c1nc2ccc([N+](=O)[O-])cc2[nH]1)c1ccccc1`, the TGI [1] is reported as 60.7 µM, the TGI [2] is reported as > 100 µM and the TGI [3] is reported as > 100 µM. The TGI [8] was > 100 µM, the TGI [4] was > 100 µM and the TGI [5] was 43.7 µM. The TGI [6] was > 100 µM and the TGI [9] was 65.6 µM.
`CCC[CH2][Sn]1([CH2]CCC)[O]C(=O)CN=Cc2c(ccc3ccccc23)[O]1` was tested, and the GI50 [1] was 0.171 µM, the TGI [1] was 0.606 µM and the GI50 [2] was 0.235 µM. For the same compound, the TGI [2] was 1.11 µM, the GI50 [3] was > 100 µM and the TGI [3] was > 100 µM. For the same compound, the GI50 [8] was 0.136 µM, the TGI [8] was 0.318 µM and the GI50 [4] was 0.794 µM. The TGI [4] was 2.08 µM, the GI50 [5] was 1.81 µM and the TGI [5] was > 100 µM. It also gave a GI50 [6] of 0.229 µM and a TGI [6] of 0.526 µM.
`COc1ccc(-c2nc(-c3nc4ccc(Cl)cc4[nH]3)c3ccccn23)cc1` showed a GI50 [1] of 2.19 µM, a TGI [1] of 6.09 µM and a GI50 [2] of 7.52 µM. For the same compound, the TGI [2] was 45.7 µM, the GI50 [7] was 2.78 µM and the TGI [7] was 9.2 µM. It also gave a GI50 [3] of 2.4 µM, a TGI [3] of 6.69 µM and a GI50 [8] of 1.94 µM. For the same compound, the TGI [8] was 3.85 µM, the GI50 [5] was 4.27 µM and the TGI [5] was 27.8 µM. The GI50 [6] was 3.6 µM, the TGI [6] was 20.7 µM and the GI50 [9] was 12.6 µM. For the same compound, the TGI [9] was > 100 µM.
`CCN(CC)C(c1ccc(N(C)C)cc1)C(c1ccc(N(C)C)cc1)N(CC)CC` (centres undefined) was tested, and the TGI [1] was 45.7 µM, the TGI [2] was > 73 µM and the TGI [3] was > 73 µM. For the same compound, the TGI [8] was > 73 µM, the TGI [4] was > 73 µM and the TGI [5] was > 73 µM. For the same compound, the TGI [6] was > 73 µM.
For `CCOC(=O)/C(C#N)=C/c1[nH]c(C(=O)OCc2ccccc2)c(C)c1C`, the TGI [1] was > 100 µM, the TGI [2] was > 100 µM and the TGI [3] was > 100 µM. For the same compound, the TGI [8] was > 100 µM, the TGI [4] was > 100 µM and the TGI [5] was > 100 µM. The TGI [6] was > 100 µM.
`CC1(C)OC2=C(CC1Br)C(=O)C(=O)c1ccccc12` (centres undefined) was tested, and the GI50 [1] was 2.33 µM, the TGI [1] was 3.97 µM and the GI50 [2] was 1.66 µM. For the same compound, the TGI [2] was 3.75 µM, the GI50 [7] was 2.26 µM and the TGI [7] was 5.22 µM. The GI50 [3] was 2.02 µM, the TGI [3] was 3.89 µM and the GI50 [8] was 1.9 µM. It also gave a TGI [8] of 3.33 µM, a GI50 [5] of 1.53 µM and a TGI [5] of 2.89 µM. The GI50 [9] was 3.97 µM and the TGI [9] was 7.44 µM.
